According to US11219619B2, “Therapeutic agent for hepatocellular carcinoma” (Eisai R&D Management Co., Ltd., priority 2018, dated 2022):

Key:
SNU-398 = assay: Proliferation of hepatocellular carcinoma cell line SNU-398 (CellTiter Glo-2.0); assay type: cell-based; conditions: Homo sapiens, 144 h; SNU-398, cultured for 6 days, 10% FBS
Description: (§1) As the human hepatocellular carcinoma cell line, SNU-398, Li-7, Hep3B2.1-7, and HuH-7 were used. In this regard, SNU-398, and Hep3B2.1-7 were obtained from American Type Culture Collection (ATCC), Li-7 was obtained from Cell Resource Center for Biomedical Research, Institute of Development, Aging and Cancer, Tohoku University, and HuH-7 was obtained from JCRB Cell Bank, respectively.
(§2) For each cell line, maintenance culture was performed by using the following medium.
(§3) An RPMI-1640 medium (Wako Pure Chemical Industries, Ltd.) containing 10% fetal bovine serum (FBS) and penicillin/streptomycin […]
(§4) The number of cells in each well after the culture was calculated by measuring the intracellular ATP level with the emission intensity using CellTiter Glo-2.0 (Promega Corporation, catalog number: G9243).
(§5) CellTiter Glo-2.0 was added in an amount of 50 μL into each well, and the mixture was mixed for 10 minutes with a plate mixer. After that, the mixture was allowed to react at room temperature for 10 minutes, and then the luminescence was measured with Multilabel Reader (ARVO X4, PerkinElmer, Inc.) The luminescence value ratio in the presence of a compound A was determined, assuming that the luminescence value in a case where Compound A had not added was set to 100% and the luminescence value in a well where cells had not been present was set to 0%. […]

Hep3B2.1-7 = assay: Proliferation of hepatocellular carcinoma cell line Hep3B2.1-7 (CellTiter Glo-2.0); assay type: cell-based; conditions: Homo sapiens, 144 h; Hep3B2.1-7, cultured for 6 days, 10% FBS
Description: as §1, §2
An EMEM medium (Wako Pure Chemical Industries, Ltd.) containing 10% FBS and penicillin/streptomycin […]
as §4, §5

HuH-7 = assay: Proliferation of hepatocellular carcinoma cell line HuH-7 (CellTiter Glo-2.0); assay type: cell-based; conditions: Homo sapiens, 144 h; HuH-7, cultured for 6 days, 10% FBS
Description: as §1, §2
A DMEM-low glucose medium (Wako Pure Chemical Industries, Ltd.) containing 10% FBS and penicillin/streptomycin […]
as §4, §5

Li-7 = assay: Proliferation of hepatocellular carcinoma cell line Li-7 (CellTiter Glo-2.0); assay type: cell-based; conditions: Homo sapiens, 144 h; Li-7, cultured for 6 days, 10% FBS
Description: as §1, §2, §3, §4, §5

[1] = system: Human-derived hepatocellular carcinoma cell line HuH-7; assay: Antitumor action against human hepatocellular carcinoma cell line HuH-7 transplanted subcutaneously in nude mice; assay type: in vivo; conditions: HuH-7 xenograft
Description: (§6) Five nude mice (CAnN.Cg-Foxnlnu/CrlCrlj, female, CHARLES RIVER LABORATORIES JAPAN, INC.) were used in each group, and the antitumor effect in a case where compound A was administered was evaluated.
(§7) Human-derived hepatocellular carcinoma cell line HuH-7 (obtained from JCRB Cell Bank) cells were suspended in a DMEM medium (Wako Pure Chemical Industries, Ltd.) containing 10% bovine serum so that the concentration of the cells was 8.0×10^7 cells/mL. Into the suspension, Matrigel™ Matrix (Becton, Dickinson and Company, Japan) in the same volume as that of the suspension was added, and the obtained mixture was sufficiently mixed. The mixture in an amount of 0.1 mL was transplanted into the subcutaneous part in the right flank of each mouse, and the mouse was subjected to the antitumor effect evaluation.
(§8) On 11 days after the transplantation, the longest diameter and the short axis of the tumor were measured with an electronic digital caliper (Digimatic™ Caliper, Mitutoyo Corporation). The mice were divided into groups so that the average values of the tumor volumes in the respective groups were nearly equal to each other. In addition, the tumor volume was calculated in accordance with the following equation. Tumor volume (mm^3)=longest diameter (mm)×short axis (mm)×short axis (mm)/2
Compound A was dissolved in purified water so that the concentration of compound A was 2.5 mg/mL.
(§9) Compound A was administered to each of the mice in the respective groups at a dose of 50 mg/kg once daily for 5 days. After that, compound A was withdrawn for 2 days, and then administered orally for 3 days. In this regard, the volume to be administered was set to 20 mL/kg, and to the control group, purified water in the same volume was administered.

[2] = system: Human-derived hepatocellular carcinoma cell line Hep3B2.1-7; assay: Antitumor action against human hepatocellular carcinoma cell line Hep3B2.1-7 transplanted subcutaneously in nude mice; assay type: in vivo; conditions: Hep3B2.1-7 xenograft
Description: as §6
as §7, with “Hep3B2.1-7” for “HuH-7”, “ATCC)” for “JCRB Cell Bank)”, “Hank's Balanced Salt Solution (HBSS)” for “DMEM medium (Wako Pure Chemical Industries, Ltd.) containing 10% bovine serum”, “4×10^7” for “8.0×10^7”
as §8, with “19” for “11”, “substantially” for “nearly”
Compound A was dissolved in purified water so that the concentration of compound A was 5 mg/mL.
as §9, with “100” for “50”, “4” for “3”

[3] = system: Human-derived hepatocellular carcinoma cell line SNU-398; assay: Antitumor action against human hepatocellular carcinoma cell line SNU-398 transplanted subcutaneously in nude mice; assay type: in vivo; conditions: SNU-398 xenograft
Description: as §6
as §7, with “SNU-398” for “HuH-7”, “ATCC)” for “JCRB Cell Bank)”, “HBSS” for “DMEM medium (Wako Pure Chemical Industries, Ltd.) containing 10% bovine serum”, “5×10^7” for “8.0×10^7”
as §8, with “9” for “11”
Compound A was dissolved in purified water so that the concentration of compound A was […] or 2.5 mg/mL.
Compound A was administered orally to each of the mice in the respective groups at a dose of 25 mg/kg or 50 mg/kg once daily for 11 days. In this regard, the volume to be administered was set to 20 mL/kg. The control group was untreated.

[4] = Day 0 (baseline), 50 mg/kg group

- IC50 (SNU-398): 26 nM
- IC50 (Hep3B2.1-7): 77 nM
- IC50 (HuH-7): 249 nM
- IC50 (Li-7): 63 nM
Structure (SMILES): CNC(=O)n1ccc2cc(Oc3ccnc(NC(=O)c4ccc(C5CCN(CCO)CC5)cc4)c3)c(OCCOC)cc21 [Compound A, 5-((2-(4-(1-(2-hydroxyethyl)piperidin-4-yl)benzamide)pyridin-4-yl)oxy)-6-(2-methoxyethoxy)-N-methyl-1H-indole-1-carboxamide sesquisuccinate]
- Tumor volume [1, 4]: 148.1 mm^3
- Tumor volume ([1]; Day 3, 50 mg/kg once daily, oral): 409.2 mm^3
- Tumor volume ([1]; Day 7, 50 mg/kg once daily for 5 days, withdrawn 2 days): 939.9 mm^3
- Tumor volume ([1]; Day 10, 50 mg/kg once daily for 5 days, withdrawn 2 days, then 3 days, oral): 1400.9 mm^3
- Tumor volume ([2]; Day 0 (baseline), 100 mg/kg group): 417.4 mm^3
- Tumor volume ([2]; Day 3, 100 mg/kg once daily, oral): 504.0 mm^3
- Tumor volume ([2]; Day 7, 100 mg/kg once daily for 5 days, withdrawn 2 days): 630.4 mm^3
- Tumor volume ([2]; Day 11, 100 mg/kg once daily for 5 days, withdrawn 2 days, then 4 days, oral): 862.3 mm^3
- Increase in the tumor volume ([3]; 25 mg/kg or 50 mg/kg once daily for 11 days, oral): suppressed in a dose-dependent manner
- Tumor volume ([3]; Day 0 (baseline), 25 mg/kg group): 154.5 mm^3
- Tumor volume [3, 4]: 153.9 mm^3
- Tumor volume ([3]; Day 4, 25 mg/kg once daily, oral): 516.4 mm^3
- Tumor volume ([3]; Day 4, 50 mg/kg once daily, oral): 443.2 mm^3
- Tumor volume ([3]; Day 7, 25 mg/kg once daily, oral): 942.2 mm^3
- Tumor volume ([3]; Day 7, 50 mg/kg once daily, oral): 779.0 mm^3
- Tumor volume ([3]; Day 11, 25 mg/kg once daily for 11 days, oral): 1280.1 mm^3
- Tumor volume ([3]; Day 11, 50 mg/kg once daily for 11 days, oral): 1066.1 mm^3
